Key:
Assay in all cases: Z'-LYTE kinase panel
Format in all cases: biochemical
BTK = molecular target: T1, BTK (Homo sapiens, UniProt Q06187)
T1 construct: purchased ThermoFisher (SelectScreen, Z'-LYTE)
Summary of the method: (§1)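 Single-point screen, 10 µM compound; % inhibition read by Z′-LYTE (FRET-based) format per standard protocol; 225-kinase panel.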

KIT = molecular target: T2, KIT (Homo sapiens, UniProt P10721)
T2 construct: purchased ThermoFisher (SelectScreen, Z'-LYTE)
Summary of the method: as §1

CDK5/p35 = molecular target: T3, CDK5/p35 (Homo sapiens, UniProt Q00535)
T3 construct: purchased ThermoFisher (SelectScreen, Z'-LYTE)
T3 sequence (Q00535 whole entry): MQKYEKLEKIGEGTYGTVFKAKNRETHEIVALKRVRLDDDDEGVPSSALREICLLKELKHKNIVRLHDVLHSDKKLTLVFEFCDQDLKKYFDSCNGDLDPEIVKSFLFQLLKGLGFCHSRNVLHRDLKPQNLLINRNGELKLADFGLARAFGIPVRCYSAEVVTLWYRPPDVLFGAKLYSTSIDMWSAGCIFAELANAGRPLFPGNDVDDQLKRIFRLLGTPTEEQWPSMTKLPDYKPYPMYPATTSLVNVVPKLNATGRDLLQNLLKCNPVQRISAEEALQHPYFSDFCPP
T3 sequence (Q15078 whole entry partner): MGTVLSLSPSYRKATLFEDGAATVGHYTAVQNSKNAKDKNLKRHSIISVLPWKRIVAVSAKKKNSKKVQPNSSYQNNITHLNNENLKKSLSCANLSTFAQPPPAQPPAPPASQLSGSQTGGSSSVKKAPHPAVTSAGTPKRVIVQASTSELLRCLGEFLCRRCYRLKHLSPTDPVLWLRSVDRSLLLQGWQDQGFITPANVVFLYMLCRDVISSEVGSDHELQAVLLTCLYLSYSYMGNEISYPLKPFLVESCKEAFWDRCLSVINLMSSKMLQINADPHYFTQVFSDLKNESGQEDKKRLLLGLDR
Summary of the method: as §1

KDR (VEGFR2) = molecular target: T4, KDR (VEGFR2) (Homo sapiens, UniProt P35968)
T4 construct: purchased ThermoFisher (SelectScreen, Z'-LYTE)
T4 sequence (P35968 20-1356): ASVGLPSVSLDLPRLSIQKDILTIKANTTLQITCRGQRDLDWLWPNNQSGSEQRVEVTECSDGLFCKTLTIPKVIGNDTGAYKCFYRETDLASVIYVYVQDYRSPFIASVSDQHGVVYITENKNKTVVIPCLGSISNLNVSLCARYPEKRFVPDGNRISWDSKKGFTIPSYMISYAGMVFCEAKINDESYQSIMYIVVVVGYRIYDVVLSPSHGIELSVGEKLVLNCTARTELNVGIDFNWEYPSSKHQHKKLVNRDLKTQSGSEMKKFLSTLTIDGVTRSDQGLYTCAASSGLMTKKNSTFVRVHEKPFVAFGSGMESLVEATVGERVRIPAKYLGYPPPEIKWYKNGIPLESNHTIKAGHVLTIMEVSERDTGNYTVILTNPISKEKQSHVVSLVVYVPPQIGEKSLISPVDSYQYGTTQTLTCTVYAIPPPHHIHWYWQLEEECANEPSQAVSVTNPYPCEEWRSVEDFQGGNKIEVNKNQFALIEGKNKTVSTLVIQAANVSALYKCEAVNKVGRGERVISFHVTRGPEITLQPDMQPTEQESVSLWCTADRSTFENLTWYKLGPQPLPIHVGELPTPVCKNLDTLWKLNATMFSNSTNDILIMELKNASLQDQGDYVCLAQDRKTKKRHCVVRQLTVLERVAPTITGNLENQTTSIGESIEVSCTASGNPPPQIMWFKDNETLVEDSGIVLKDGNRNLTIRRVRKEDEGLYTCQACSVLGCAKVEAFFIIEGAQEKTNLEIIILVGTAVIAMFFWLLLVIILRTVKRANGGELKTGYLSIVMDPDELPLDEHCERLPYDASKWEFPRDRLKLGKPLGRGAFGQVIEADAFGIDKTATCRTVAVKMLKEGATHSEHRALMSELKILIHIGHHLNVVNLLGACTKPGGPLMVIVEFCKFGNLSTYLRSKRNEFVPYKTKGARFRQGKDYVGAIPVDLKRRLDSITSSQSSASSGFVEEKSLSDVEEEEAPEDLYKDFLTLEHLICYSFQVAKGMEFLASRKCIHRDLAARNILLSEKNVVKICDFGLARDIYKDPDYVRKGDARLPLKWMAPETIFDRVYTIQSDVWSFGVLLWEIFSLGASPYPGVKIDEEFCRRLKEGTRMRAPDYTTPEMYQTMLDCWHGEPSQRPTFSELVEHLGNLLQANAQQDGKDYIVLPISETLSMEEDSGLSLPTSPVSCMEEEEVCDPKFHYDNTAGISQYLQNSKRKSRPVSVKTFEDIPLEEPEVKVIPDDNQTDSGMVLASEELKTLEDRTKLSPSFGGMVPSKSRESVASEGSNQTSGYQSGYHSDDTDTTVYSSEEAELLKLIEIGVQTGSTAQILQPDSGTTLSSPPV
Summary of the method: as §1

GSK3A (GSK3 alpha) = molecular target: T5, GSK3A (GSK3 alpha) (Homo sapiens, UniProt P49840); conditions: 10 µM compound, ATP Km app
T5 construct: purchased ThermoFisher (SelectScreen, Z'-LYTE)
T5 sequence (P49840 whole entry): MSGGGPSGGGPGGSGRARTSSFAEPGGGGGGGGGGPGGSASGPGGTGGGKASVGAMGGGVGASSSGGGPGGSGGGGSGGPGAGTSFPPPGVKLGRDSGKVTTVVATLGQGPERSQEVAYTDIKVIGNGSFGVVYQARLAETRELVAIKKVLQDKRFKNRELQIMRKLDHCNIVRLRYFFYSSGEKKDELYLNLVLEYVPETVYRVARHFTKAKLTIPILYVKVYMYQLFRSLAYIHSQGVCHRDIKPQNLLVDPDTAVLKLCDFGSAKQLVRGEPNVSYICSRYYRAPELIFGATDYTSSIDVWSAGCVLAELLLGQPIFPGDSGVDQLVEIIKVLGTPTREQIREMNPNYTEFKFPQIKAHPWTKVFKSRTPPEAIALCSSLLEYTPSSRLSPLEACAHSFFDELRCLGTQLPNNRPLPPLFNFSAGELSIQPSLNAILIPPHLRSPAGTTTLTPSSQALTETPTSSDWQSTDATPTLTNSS
Summary of the method: as §1

PRKX = molecular target: T6, PRKX (Homo sapiens, UniProt P51817)
T6 construct: purchased ThermoFisher (SelectScreen, Z'-LYTE)
T6 sequence (P51817 1-358): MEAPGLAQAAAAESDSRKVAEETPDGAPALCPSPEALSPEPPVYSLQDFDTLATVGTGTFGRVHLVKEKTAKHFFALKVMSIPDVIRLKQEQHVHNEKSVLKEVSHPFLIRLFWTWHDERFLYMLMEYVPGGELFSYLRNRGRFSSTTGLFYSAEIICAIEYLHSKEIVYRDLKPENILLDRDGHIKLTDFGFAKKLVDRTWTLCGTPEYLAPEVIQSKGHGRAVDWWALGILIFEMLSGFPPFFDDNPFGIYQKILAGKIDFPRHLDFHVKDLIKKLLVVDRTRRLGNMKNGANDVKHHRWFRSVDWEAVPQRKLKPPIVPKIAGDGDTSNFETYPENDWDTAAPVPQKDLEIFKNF
Summary of the method: as §1

EPHB2 = molecular target: T7, EPHB2 (Homo sapiens, UniProt P29323)
T7 construct: purchased ThermoFisher (SelectScreen, Z'-LYTE)
T7 sequence (P29323 19-1055): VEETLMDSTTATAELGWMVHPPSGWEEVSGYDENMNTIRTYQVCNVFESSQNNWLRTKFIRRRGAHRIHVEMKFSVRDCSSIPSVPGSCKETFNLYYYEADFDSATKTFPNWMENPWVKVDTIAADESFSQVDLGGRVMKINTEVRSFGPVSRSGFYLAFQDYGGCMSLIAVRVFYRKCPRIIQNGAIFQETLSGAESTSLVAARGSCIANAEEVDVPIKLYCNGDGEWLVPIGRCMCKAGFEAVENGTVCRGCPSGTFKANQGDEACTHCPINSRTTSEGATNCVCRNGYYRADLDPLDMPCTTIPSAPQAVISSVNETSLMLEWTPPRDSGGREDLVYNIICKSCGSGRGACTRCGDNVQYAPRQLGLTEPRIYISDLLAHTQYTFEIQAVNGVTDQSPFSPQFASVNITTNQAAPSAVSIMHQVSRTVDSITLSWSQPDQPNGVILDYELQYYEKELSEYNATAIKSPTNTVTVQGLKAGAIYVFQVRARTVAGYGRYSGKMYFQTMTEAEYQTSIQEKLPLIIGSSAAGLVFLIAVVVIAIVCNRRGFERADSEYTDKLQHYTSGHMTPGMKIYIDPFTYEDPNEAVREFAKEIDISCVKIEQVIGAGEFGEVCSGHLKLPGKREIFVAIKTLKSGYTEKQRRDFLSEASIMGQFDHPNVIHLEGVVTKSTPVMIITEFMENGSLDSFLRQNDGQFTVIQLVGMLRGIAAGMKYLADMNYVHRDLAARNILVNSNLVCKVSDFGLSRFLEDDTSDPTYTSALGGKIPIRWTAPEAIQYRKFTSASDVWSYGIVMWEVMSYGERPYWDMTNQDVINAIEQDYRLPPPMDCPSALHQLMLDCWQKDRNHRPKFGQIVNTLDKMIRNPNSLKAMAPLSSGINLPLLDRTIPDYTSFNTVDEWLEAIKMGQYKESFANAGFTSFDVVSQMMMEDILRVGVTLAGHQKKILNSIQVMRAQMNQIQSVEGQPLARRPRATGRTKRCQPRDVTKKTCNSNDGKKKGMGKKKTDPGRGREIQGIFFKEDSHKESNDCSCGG
Summary of the method: as §1

MERTK (cMER) = molecular target: T8, MERTK (cMER) (Homo sapiens, UniProt Q12866)
T8 construct: purchased ThermoFisher (SelectScreen, Z'-LYTE)
T8 sequence (Q12866 21-999): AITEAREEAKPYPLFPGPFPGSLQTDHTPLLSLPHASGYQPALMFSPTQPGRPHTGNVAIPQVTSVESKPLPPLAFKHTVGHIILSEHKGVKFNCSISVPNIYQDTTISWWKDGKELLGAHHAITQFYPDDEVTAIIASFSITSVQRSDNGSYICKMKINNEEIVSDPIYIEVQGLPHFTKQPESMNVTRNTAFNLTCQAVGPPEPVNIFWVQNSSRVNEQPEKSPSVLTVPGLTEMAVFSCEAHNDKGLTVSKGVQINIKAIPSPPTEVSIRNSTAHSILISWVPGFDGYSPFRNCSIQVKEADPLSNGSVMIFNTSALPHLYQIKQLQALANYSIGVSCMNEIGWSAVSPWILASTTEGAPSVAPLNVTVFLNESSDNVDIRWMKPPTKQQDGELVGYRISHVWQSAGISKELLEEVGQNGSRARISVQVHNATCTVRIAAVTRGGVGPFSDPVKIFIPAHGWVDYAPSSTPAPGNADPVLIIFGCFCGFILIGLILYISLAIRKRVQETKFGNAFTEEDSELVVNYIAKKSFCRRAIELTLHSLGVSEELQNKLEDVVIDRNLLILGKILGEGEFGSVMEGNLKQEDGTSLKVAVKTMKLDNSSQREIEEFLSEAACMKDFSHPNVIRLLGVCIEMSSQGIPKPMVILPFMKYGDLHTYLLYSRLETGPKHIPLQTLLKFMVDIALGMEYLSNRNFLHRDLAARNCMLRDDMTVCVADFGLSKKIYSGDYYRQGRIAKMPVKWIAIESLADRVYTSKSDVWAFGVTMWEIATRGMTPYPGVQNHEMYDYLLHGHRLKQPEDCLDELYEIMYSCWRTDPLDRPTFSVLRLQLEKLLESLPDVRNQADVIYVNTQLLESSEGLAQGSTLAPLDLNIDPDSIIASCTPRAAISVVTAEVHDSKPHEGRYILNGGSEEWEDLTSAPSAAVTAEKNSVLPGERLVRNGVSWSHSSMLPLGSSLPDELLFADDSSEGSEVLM
Summary of the method: as §1

PIM2 = molecular target: T9, PIM2 (Homo sapiens, UniProt Q9P1W9)
T9 construct: purchased ThermoFisher (SelectScreen, Z'-LYTE)
T9 sequence (Q9P1W9 whole entry): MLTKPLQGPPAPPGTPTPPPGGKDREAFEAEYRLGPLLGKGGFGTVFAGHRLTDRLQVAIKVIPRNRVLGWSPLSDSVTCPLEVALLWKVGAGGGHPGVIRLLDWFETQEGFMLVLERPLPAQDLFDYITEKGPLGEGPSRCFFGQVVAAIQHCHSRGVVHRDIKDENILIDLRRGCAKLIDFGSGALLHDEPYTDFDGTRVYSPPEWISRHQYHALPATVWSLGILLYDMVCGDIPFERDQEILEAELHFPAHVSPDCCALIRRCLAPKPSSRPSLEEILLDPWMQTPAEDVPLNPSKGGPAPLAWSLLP
Summary of the method: as §1

T1 sequence (Q06187 whole entry): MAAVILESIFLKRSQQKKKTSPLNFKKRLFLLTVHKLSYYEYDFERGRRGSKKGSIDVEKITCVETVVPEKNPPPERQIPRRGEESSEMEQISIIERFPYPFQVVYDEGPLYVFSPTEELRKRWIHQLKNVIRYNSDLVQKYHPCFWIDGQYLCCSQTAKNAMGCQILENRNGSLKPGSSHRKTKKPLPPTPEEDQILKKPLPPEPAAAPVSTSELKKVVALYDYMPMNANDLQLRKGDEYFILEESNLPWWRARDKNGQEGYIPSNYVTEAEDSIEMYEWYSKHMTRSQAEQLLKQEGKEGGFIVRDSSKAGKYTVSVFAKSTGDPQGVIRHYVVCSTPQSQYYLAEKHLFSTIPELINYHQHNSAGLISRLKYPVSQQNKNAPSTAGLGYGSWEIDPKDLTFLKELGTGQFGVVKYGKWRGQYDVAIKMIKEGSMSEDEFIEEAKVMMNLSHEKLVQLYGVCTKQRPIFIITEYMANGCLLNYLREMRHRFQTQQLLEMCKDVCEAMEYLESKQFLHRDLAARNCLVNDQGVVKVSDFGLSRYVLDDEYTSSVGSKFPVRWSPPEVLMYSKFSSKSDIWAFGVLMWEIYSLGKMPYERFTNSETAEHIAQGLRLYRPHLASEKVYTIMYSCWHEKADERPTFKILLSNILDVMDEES
T2 sequence (P10721 26-976): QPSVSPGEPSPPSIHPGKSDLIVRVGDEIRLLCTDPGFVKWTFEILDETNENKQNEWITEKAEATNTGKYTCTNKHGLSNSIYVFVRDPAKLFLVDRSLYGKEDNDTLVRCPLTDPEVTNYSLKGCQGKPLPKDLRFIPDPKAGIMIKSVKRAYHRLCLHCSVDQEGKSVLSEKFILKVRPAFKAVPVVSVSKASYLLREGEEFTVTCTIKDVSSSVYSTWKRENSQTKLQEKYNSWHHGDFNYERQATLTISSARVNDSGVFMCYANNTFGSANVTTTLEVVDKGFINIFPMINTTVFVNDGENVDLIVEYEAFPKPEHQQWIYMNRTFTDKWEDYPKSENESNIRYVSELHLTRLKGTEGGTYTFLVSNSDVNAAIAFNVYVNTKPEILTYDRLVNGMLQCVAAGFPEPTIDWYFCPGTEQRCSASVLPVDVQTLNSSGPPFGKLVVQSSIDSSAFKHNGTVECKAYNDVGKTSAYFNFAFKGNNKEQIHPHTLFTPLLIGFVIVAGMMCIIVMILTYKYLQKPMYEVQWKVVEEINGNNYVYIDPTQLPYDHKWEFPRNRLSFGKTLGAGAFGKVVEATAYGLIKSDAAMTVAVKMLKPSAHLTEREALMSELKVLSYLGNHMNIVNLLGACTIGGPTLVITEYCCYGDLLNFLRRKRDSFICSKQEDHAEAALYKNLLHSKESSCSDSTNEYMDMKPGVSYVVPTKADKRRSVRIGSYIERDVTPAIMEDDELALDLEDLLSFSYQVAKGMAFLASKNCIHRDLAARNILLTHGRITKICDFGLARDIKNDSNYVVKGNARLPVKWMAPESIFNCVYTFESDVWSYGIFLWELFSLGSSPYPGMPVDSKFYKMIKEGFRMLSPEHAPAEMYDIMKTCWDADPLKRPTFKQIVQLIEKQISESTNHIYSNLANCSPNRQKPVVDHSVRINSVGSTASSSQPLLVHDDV

Compound: Cc1ncc(-c2nc(Nc3ccc(C(=O)NCCN4CCCCC4)cc3)ncc2F)n1C(C)C [Compound 3]
- inhibition at 10 µM (BTK): 59%
- inhibition at 10 µM (KIT): 31%
- inhibition at 10 µM (CDK5/p35): 106%
- inhibition at 10 µM (KDR (VEGFR2)): 100%
- inhibition at 10 µM (GSK3A (GSK3 alpha)): 98%
- inhibition at 10 µM (PRKX): 84%
- inhibition at 10 µM (EPHB2): 97%
- inhibition at 10 µM (MERTK (cMER)): 99%
- inhibition at 10 µM (PIM2): 40%

Compound: Cc1cc(Nc2nc(N)nn2C(=O)NC(C)C)ccc1Cl [Compound 5]
- inhibition at 10 µM (BTK): 11%
- inhibition at 10 µM (KIT): 11%
- inhibition at 10 µM (CDK5/p35): 71%
- inhibition at 10 µM (KDR (VEGFR2)): 59%
- inhibition at 10 µM (GSK3A (GSK3 alpha)): > 80%
- GSK3A (GSK3 alpha) % Inhibition (GSK3A (GSK3 alpha); listed as SN1109056190, 10 µM): 82%
- inhibition at 10 µM (PRKX): 8.43%
- inhibition at 10 µM (EPHB2): 7%
- inhibition at 10 µM (MERTK (cMER)): 43%
- inhibition at 10 µM (PIM2): -13%

Compound: XMD8-92 [Compound 2, reference compound]
- BTK % Inhibition (BTK; 10 µM compound, ATP Km app): 35%
- KIT % Inhibition (KIT; 10 µM compound, ATP Km app): -5.51%
- CDK5/p35 % Inhibition (CDK5/p35; 10 µM compound, ATP Km app): 77%
- KDR (VEGFR2) % Inhibition (KDR (VEGFR2); 10 µM compound, ATP Km app): 81%
- GSK3A (GSK3 alpha) % Inhibition (GSK3A (GSK3 alpha)): 35%
- PRKX % Inhibition (PRKX; 10 µM compound, ATP Km app): 25%
- EPHB2 % Inhibition (EPHB2; 10 µM compound, ATP Km app): 18%
- MERTK (cMER) % Inhibition (MERTK (cMER); 10 µM compound, ATP Km app): 0.252%
- PIM2 % Inhibition (PIM2; 10 µM compound, ATP Km app): 22%

From publication PMC4854315, “Discovery of a novel allosteric inhibitor-binding site in ERK5: comparison with the canonical kinase hinge ATP-binding site” (Acta Crystallographica. Section D, Structural Biology, 2016)
